Data on 17 molecules can be found in US12421211B2, “Heterocyclic compounds” (Hoffmann-La Roche Inc., priority 2021, dated 2025).

Each structure is given as a SMILES string. Where a name gives a salt, the structure may show the parent alone.

In one assay the test system is Acinetobacter baumannii ATCC17961. Put plainly: Antimicrobial susceptibility testing: 90% growth inhibitory concentration (IC90) determination. Type of assay: cell-based. The following applies: 90% growth inhibitory concentration, Acinetobacter baumannii ATCC17961, Iso-Sensitest broth, OD 600 nm over 16 h; formic acid; formate; read-out: ATCC 17961 IC90. How it is done: Assay Procedures Antimicrobial Susceptibility Testing: 90% Growth Inhibitory Concentration (IC90) Determination
The in vitro antimicrobial activity of the compounds was determined according to the following procedure:
The assay used a 10-points Iso-Sensitest broth medium to measure quantitatively the in vitro activity of the compounds against Acinetobacter baumannii ATCC17961.
Stock compounds in DMSO were serially twofold diluted (e.g. range from 50 to 0.097 μM final concentration) in 384 wells microtiter plates and inoculated with 49 μl the bacterial suspension in Iso-Sensitest medium to have a final cell concentration of ˜5×10^(5) CFU/ml in a final volume/well of 50 ul/well. Microtiter plates were incubated at 35±2° C.
Bacterial cell growth was determined with the measurement of optical density at λ=600 nm each 20 minutes over a time course of 16h. Growth inhibition was calculated during the logarithmic growth of the bacterial cells with determination of the concentration inhibiting 50% (IC50) and 90% (IC90) of the growth.
Table 1 provides the 90% growth inhibitory concentrations (IC90) in micromoles per liter of the compounds of present invention obtained against the strain Acinetobacter baumannii ATCC17961.
In the case of `COCCn1ncc(-c2ccc(-c3cnc(C(=O)Nc4ccc(C(=O)N5CCN(C(=O)C6CC[N+](CC(=O)O)(CC7CNC7)CC6)CC5)c(Cl)c4)n3C)c(F)c2F)c1C` (centres unmarked) [Example B30, 2-[1-(azetidin-3-ylmethyl)-4-[4-[2-chloro-4-[[5-[2,3-difluoro-4-[1-(2-methoxyethyl)-5-methyl-pyrazol-4-yl]phenyl]-1-methyl-imidazole-2-carbonyl]amino]benzoyl]piperazine-1-carbonyl]piperidin-1-ium-1-yl]acetic acid; formic acid; formate], the IC90 came out at 190 nM.

Still in this assay, the particulars now being: Acinetobacter baumannii, ATCC17961, 16 h, 90% growth inhibitory concentration, Acinetobacter baumannii ATCC17961, Iso-Sensitest broth, OD 600 nm over 16 h; read-out: ATCC 17961 IC90.
Turning to `COCCn1cc(-c2ccc(-c3cnc(C(=O)Nc4ccc(C(=O)N5CCN(C(=O)C6CCNCC6)CC5)c(Cl)c4)n3C)c(F)c2F)cn1` [Example E21, N-[3-chloro-4-[4-(piperidine-4-carbonyl)piperazine-1-carbonyl]phenyl]-5-[2,3-difluoro-4-[1-(2-methoxyethyl)pyrazol-4-yl]phenyl]-1-methyl-imidazole-2-carboxamide], the IC90 was 290 nM.
Still for that read-out and setting: the result for `COCCn1cc(-c2ccc(-c3cnc(C(=O)Nc4ccc(C(=O)N5CCN(C(=O)[C@@H]6[C@@H](O)CC[N+]6(C)C)CC5)c(Cl)c4)n3C)c(F)c2F)c(C)n1` [Example D1, N-[3-chloro-4-[4-[(2S,3S)-3-hydroxy-1,1-dimethyl-pyrrolidin-1-ium-2-carbonyl]piperazine-1-carbonyl]phenyl]-5-[2,3-difluoro-4-[1l-(2-methoxyethyl)-3-methyl-pyrazol-4-yl]phenyl]-1-methyl-imidazole-2-carboxamide; formate] reads 280 nM; that for `COCCn1ncc(-c2ccc(-c3cnc(C(=O)Nc4ccc(C(=O)N5CCC(C(=O)N6CC[N+](CC(N)=O)(CC7CNC7)CC6)CC5)c(Cl)c4)n3C)c(F)c2F)c1C` [Example B24, N-[4-[4-[4-(2-amino-2-oxo-ethyl)-4-(azetidin-3-ylmethyl)piperazin-4-ium-1-carbonyl]piperidine-1-carbonyl]-3-chloro-phenyl]-5-[2,3-difluoro-4-[1-(2-methoxyethyl)-5-methyl-pyrazol-4-yl]phenyl]-1-methyl-imidazole-2-carboxamide; 2,2,2-trifluoroacetate; 2,2,2-trifluoroacetic acid], 95 nM.
Still for that read-out and setting: the result for `Cc1c(-c2ccc(-c3cnc(C(=O)Nc4ccc(C(=O)N5CCN(C(=O)C6CC[N+](C)(C)CC6)CC5)c(Cl)c4)n3C)c(F)c2F)cnn1CCNC(=O)NC(C)(C)C` [Example H4, 5-[4-[1-[2-(tert-butylcarbamoylamino)ethyl]-5-methyl-pyrazol-4-yl]-2,3-difluoro-phenyl]-N-[3-chloro-4-[4-(1,1-dimethylpiperidin-1-ium-4-carbonyl)piperazine-1-carbonyl]phenyl]-1-methyl-imidazole-2-carboxamide; formate] reads 160 nM.
The same measure, in the same setting: the result for `COCCn1ncc(-c2ccc(-c3cnc(C(=O)Nc4ccc(C(=O)N5CCC(C(=O)N6CC[N+](C)(CC(N)=O)CC6)CC5)c(Cl)c4)n3C)c(F)c2F)c1C` [Example B15, N-[4-[4-[4-(2-amino-2-oxo-ethyl)-4-methyl-piperazin-4-ium-1-carbonyl]piperidine-1-carbonyl]-3-chloro-phenyl]-5-[2,3-difluoro-4-[1-(2-methoxyethyl)-5-methyl-pyrazol-4-yl]phenyl]-1-methyl-imidazole-2-carboxamide; formate] reads 170 nM; that for `Cc1n[nH]cc1-c1ccc(-c2cnc(C(=O)Nc3ccc(C(=O)N4CCC(CN5CC[N+](C)(C)CC5=O)CC4)c(Cl)c3)n2C)c(F)c1F` [Example D21, N-[3-chloro-4-[4-[(4,4-dimethyl-2-oxo-piperazin-4-ium-1-yl)methyl]piperidine-1-carbonyl]phenyl]-5-[2,3-difluoro-4-(3-methyl-1H-pyrazol-4-yl)phenyl]-1-methyl-imidazole-2-carboxamide; formate], 200 nM.
In the case of `Cc1nn(CC(=O)Nc2cccc(F)c2)cc1-c1ccc(-c2cnc(C(=O)Nc3ccc(C(=O)N4CCN(C(=O)C5CC[N+](C)(C)CC5)CC4)c(Cl)c3)n2C)c(F)c1F` [Example G13, N-[3-chloro-4-[4-(1,1-dimethylpiperidin-1-ium-4-carbonyl)piperazine-1-carbonyl]phenyl]-5-[2,3-difluoro-4-[1-[2-(3-fluoroanilino)-2-oxo-ethyl]-3-methyl-pyrazol-4-yl]phenyl]-1-methyl-imidazole-2-carboxamide; chloride], the IC90 was 130 nM.
With `Cc1n[nH]cc1-c1ccc(-c2cnc(C(=O)Nc3ccc(C(=O)N4CCN(C(=O)CCC[N+](CC(=O)O)(CC5CNC5)CC5CNC5)CC4)c(Cl)c3)n2C)c(F)c1F` [Example D42, bis(azetidin-3-ylmethyl)-(carboxymethyl)-[4-[4-[2-chloro-4-[[5-[2,3-difluoro-4-(3-methyl-1H-pyrazol-4-yl)phenyl]-1-methyl-imidazole-2-carbonyl]amino]benzoyl]piperazin-1-yl]-4-oxo-butyl]ammonium; formic acid; formate], the 90% effect concentration (IC90) worked out at 60 nM.
The same measure, in the same setting: as for `COCCn1cc(-c2ccc(-c3cnc(C(=O)Nc4ccc(C(=O)N5CCN(C(=O)CC6(O)CC[N+](C)(C)CC6)CC5)c(Cl)c4)n3C)c(F)c2F)c(C)n1` [Example D17, N-[3-chloro-4-[4-[2-(4-hydroxy-1,1-dimethyl-piperidin-1-ium-4-yl)acetyl]piperazine-1-carbonyl]phenyl]-5-[2,3-difluoro-4-[1-(2-methoxyethyl)-3-methyl-pyrazol-4-yl]phenyl]-1-methyl-imidazole-2-carboxamide; formate], the figure is 260 nM.
Still for that read-out and setting: the result for `COCCn1ncc(-c2ccc(-c3cnc(C(=O)Nc4ccc(C(=O)N5CCN(C(=O)C[C@@H]6CCNC6)CC5)c(Cl)c4)n3C)c(F)c2F)c1C` [Example E2, N-[3-chloro-4-[4-[2-[(3S)-pyrrolidin-3-yl]acetyl]piperazine-1-carbonyl]phenyl]-5-[2,3-difluoro-4-[1-(2-methoxyethyl)-5-methyl-pyrazol-4-yl]phenyl]-1-methyl-imidazole-2-carboxamide; formic acid] reads 48 nM.
The same measure, in the same setting: as for `COCCn1ncc(-c2ccc(-c3cnc(C(=O)Nc4ccc(C(=O)N5CCN(C(=O)CCCC(=O)N6CC[N+](CCCN)(CC(=O)O)CC6)CC5)c(Cl)c4)n3C)c(F)c2F)c1C` [Example P5, 2-[1-(3-aminopropyl)-4-[5-[4-[2-chloro-4-[[5-[2,3-difluoro-4-[1-(2-methoxyethyl)-5-methyl-pyrazol-4-yl]phenyl]-1-methyl-imidazole-2-carbonyl]amino]benzoyl]piperazino]-5-keto-pentanoyl]piperazin-1-ium-1-yl]acetic acid; formate], the figure is 295 nM; as for `COCCn1cc(-c2ccc(-c3cnc(C(=O)Nc4ccc(C(=O)N5CCN(C(=O)C[N+]6(C)CCC(O)(CN)C6)CC5)c(Cl)c4)n3C)c(F)c2F)c(C)n1` (centres unmarked) [Example C6, N-[4-[4-[2-[3-(aminomethyl)-3-hydroxy-1-methyl-pyrrolidin-1-ium-1-yl]acetyl]piperazine-1-carbonyl]-3-chloro-phenyl]-5-[2,3-difluoro-4-[1-(2-methoxyethyl)-3-methyl-pyrazol-4-yl]phenyl]-1-methyl-imidazole-2-carboxamide; formic acid; formate], 140 nM; as for `COCCn1ncc(-c2ccc(-c3cnc(C(=O)Nc4ccc(C(=O)N5CCC(C(=O)N6CC[N+](C)(C)C(CO)C6)CC5)c(Cl)c4)n3C)c(F)c2F)c1C` (centres unmarked) [Example D6, N-[3-chloro-4-[4-[3-(hydroxymethyl)-4,4-dimethyl-piperazin-4-ium-1-carbonyl]piperidine-1-carbonyl]phenyl]-5-[2,3-difluoro-4-[1-(2-methoxyethyl)-5-methyl-pyrazol-4-yl]phenyl]-1-methyl-imidazole-2-carboxamide; formate], 85 nM.
In the case of `COCCn1cc(-c2ccc(-c3cnc(C(=O)Nc4ccc(C(=O)N5CCN(C(=O)C6CC[N+](C)(C)CC6)CC5)c(Cl)c4)n3C)c(F)c2F)c(N)n1` [Example F26, 5-[4-[3-amino-1-(2-methoxyethyl)pyrazol-4-yl]-2,3-difluoro-phenyl]-N-[3-chloro-4-[4-(1,1-dimethylpiperidin-1-ium-4-carbonyl)piperazine-1-carbonyl]phenyl]-1-methyl-imidazole-2-carboxamide; formate], the IC90 stood at 1400 nM.

Staying with this assay, now noted: Acinetobacter baumannii, ATCC17961, 16 h, read-out: ATCC 17961 IC90.
In the case of `COCCn1cc(-c2ccc(-c3cnc(C(=O)Nc4ccc(C(=O)N5CCN(C(=O)C[N+]6(C)CC[C@H](O)C6)CC5)c(Cl)c4)n3C)c(F)c2F)c(C)n1` (stereo partly drawn) [Example C9, N-[3-chloro-4-[4-[2-[(3S)-3-hydroxy-1-methyl-pyrrolidin-1-ium-1-yl]acetyl]piperazine-1-carbonyl]phenyl]-5-[2,3-difluoro-4-[1-(2-methoxyethyl)-3-methyl-pyrazol-4-yl]phenyl]-1-methyl-imidazole-2-carboxamide; formate], the 90% effect concentration (IC90) was 260 nM.
Same read-out and setting: the result for `COCCn1ncc(-c2ccc(-c3cnc(C(=O)Nc4ccc(C(=O)NCC5CCN(C(=O)C[N+](C)(C)C)CC5)c(Cl)c4)n3C)c(F)c2F)c1C` [Example A9, [2-[4-[[[2-chloro-4-[[5-[2,3-difluoro-4-[1-(2-methoxyethyl)-5-methyl-pyrazol-4-yl]phenyl]-1-methyl-imidazole-2-carbonyl]amino]benzoyl]amino]methyl]-1-piperidyl]-2-oxo-ethyl]-trimethyl-ammonium; 2,2,2-trifluoroacetate] reads 160 nM.
